A value given as a limit tells only on which side of the number the result lay.

The melting point is the temperature of the solid-liquid transition. The compound `Cc1ccccc1-c1nc2c(s1)C(S(=O)(=O)Cc1ccccc1)Cc1c(OCC(=O)O)cccc1-2` (stereo not drawn) showed a melting point of 192 to 193 °C. Take `CCS(=O)c1nc(N2CCNCC2)c2sc3nc(-c4ccccc4)cc(C)c3c2n1` (stereo not drawn): the melting point lay in the range of 165 to 170 °C. With `Cn1ccc(-c2cc3nccnc3[nH]2)c1`, the melting point was in the range of 211 to 213 °C. The same measure for `COc1cc2ncnc(N3CCN(C(=S)NCc4ccc([N+](=O)[O-])cc4)CC3)c2cc1OC`: 214 to 216 °C.

As for `CC1CC2(CC(C)(C)C1=O)OC(C)C(C)O2` (stereo not drawn), the melting point lay in the range of 71 to 72 °C. The compound `COc1ccc(-c2cnc(S(C)(=O)=O)nc2)cc1OC1CCCC1` showed a melting point of 188 to 190 °C.

In the case of `COC(=O)c1ccc2c(c1)Sc1ccc(F)cc1C(=O)C2`, the melting point lay within 129 to 131 °C. The compound `CC1(C=O)CC1(c1ccc(F)cc1)c1ccc(F)cc1` (stereo not drawn) yielded a melting point of 110 to 113 °C. `O=C(NNc1ccc(NC(=S)Nc2ccc(NNC(=O)c3ccccc3)cc2)cc1)c1ccccc1` returned a melting point of 185 to 187 °C. For `COC(=N)c1ccc(Br)cc1`, the melting point fell in the range of 64 to 65 °C.

Turning to `O=C1C=C(Nc2cccc(F)c2)CCN1`, the melting point lay within 188 to 190 °C. The compound `C[C@H]1C=CC2=C[C@@H](O)C[C@H](OC(=O)C(C)(C)Oc3ccc(F)cc3)[C@@H]2[C@H]1CC[C@@H]1C[C@@H](O)CC(=O)O1` came in with a melting point of 142 to 145 °C. `CC(=O)Cc1cc([C@]2(c3cccc(-c4cccnc4F)c3)N=C(N)N(C)C2=O)cn1CCCF` registered a melting point of 147 to 150 °C. The compound `CCCC(=O)C1=C(O)CC(c2ccc3occc3c2)CC1=O` (stereo not drawn) came in with a melting point of 71 °C.

`FC(F)(F)c1cccc(CSc2nc3cnccc3[nH]2)c1`: the melting point was in the range of 148 to 150 °C.

For `Cc1noc(C)c1-c1cnc2c(c1)N(Cc1c(F)ccc(F)c1Cl)CCN2`, the melting point was in the range of 215 to 216 °C. `N#CCc1cn(-c2ccccc2)nc1OCc1ccccc1` gave a melting point of 102 to 103 °C.

In the case of `O=C(N[C@H](Cc1ccc(C(F)(F)F)cc1)[C@@H](O)c1ccc(F)cc1)c1cc(C(F)(F)F)cc(C(F)(F)F)c1` (racemic), the melting point was in the range of 150 to 151 °C.

`CC(=O)NC[C@H]1CN(c2ccc(-n3nccc3-c3cccc(Br)n3)c(F)c2)C(=O)O1` had a melting point of 90.5 to 92.3 °C. For the compound `CCCCCn1c(=O)c2cc(C(=O)OCC)cn2c2ccccc21`, the melting point was in the range of 151 to 152 °C. On to `COc1ccc(CCNC(=O)COCCC(=O)NCCc2ccccc2)cc1OC`, for which the melting point fell in the range of 108 to 110 °C. Compound `O=C(O)CCCc1cc2nc(Cl)ccc2n1S(=O)(=O)c1cccc(Cl)c1Cl` came in with a melting point of 173 to 174 °C. Regarding `O=Nc1ccc(NC2CCCCC2)cc1`, the melting point was in the range of 90 to 92 °C. For the compound `CCCCCCCNC(=O)Nc1ccc(F)cc1C(=O)NC1CCN(C(c2ccccc2)c2ccccc2)CC1`, the melting point lay within 208 to 210 °C. Next, `O=C(O)C=Cc1cccc(-c2cccc([N+](=O)[O-])c2)c1`: 247 to 248 °C; `CCNC(Cc1ccc(O)cc1)C(=O)OCC` (stereo not drawn): 87 to 89 °C. Turning to `Cn1c(=O)[nH]c2c(C(N)=O)nc(-c3cccnc3)nc21`, the melting point is greater than 350 °C. Consider `CC(C)(CCCC(=O)O)c1ccc(O)cc1`, for which the melting point is 94 to 96 °C.

For `Cc1cc2nn(C)c(=O)n2nc1-c1cccc([N+](=O)[O-])c1`, the melting point fell in the range of 250 to 253 °C.

With `COc1cc(NCCO)c([N+](=O)[O-])c(NCCO)c1`, the melting point amounted to 150 °C.

`NC(=O)c1cc2ccccc2cc1N` showed a melting point of 234 to 235 °C. For `COC1=CC(=O)N/C1=C\C(C)C`, the melting point was in the range of 140 to 141 °C. In the case of `COc1ccccc1-c1ccc(C(=O)N2Cc3ccc(C(=O)O)n3Cc3ccccc32)cc1C`, the melting point lay in the range of 133 to 135 °C. On to `C#CCN1CC(=O)N(c2cc(Cl)ccc2C)C1=S`, for which the melting point was 131 to 134 °C.

Compound `c1cc(OCC2CO2)c2cnsc2c1` (stereo not drawn) had a melting point of 90 to 91 °C. For the compound `Cc1cc(OCc2ccccc2)c(C)cc1OCCCC(C)(C)C(=O)O`, the melting point was 104 to 106 °C. The compound `C(=Nc1c2c(nc3ccccc13)CCCC2)c1ccccc1` had a melting point of 168 to 169 °C. With `O=[N+]([O-])c1ccc2oc(-c3ccccc3)cc2c1`, the melting point amounted to 159 °C.

`Cc1c(NC(=O)CC(C)(C)C)cc2c(c1C)OC(C)(C)C2(O)c1cccc(C=O)c1` (stereo not drawn) came in with a melting point of 189 to 190 °C. In turn, `CC(=O)Nc1ccccc1CSc1nc2ccccc2[nH]1` came in with a melting point of 218 to 222 °C. Next, `CCCCC(CC)COC(=O)C=CC(=O)NC(N)=O` (stereo not drawn): 73 to 76 °C; `CCC1CCC(C)N(C(=O)CN(C(=O)CNC(=O)Nc2cccc(C)c2)c2ccccc2)C1` (stereo not drawn): 158 °C; `Clc1cc(Br)cnc1Br`: 40 to 41 °C. In turn, `CC(C)(C)OC(=O)NCCc1c[nH]c2ccc(C#N)cc12` returned a melting point of 129 to 132 °C. The same measure for `CCCn1c(=O)c2[nH]c(C3CCCC3)nc2n(CCc2ccc(NC(=O)C3CCCC3)cc2)c1=O`: greater than 270 °C; for `Fc1nccn1C(c1ccccc1)(c1ccccc1)c1ccccc1`: 182 to 185 °C. Consider `Fc1ccc(-c2nc3ccc(N4CCC5(CCCNC5)CC4)nn3c2-c2ccnc3[nH]ccc23)cc1`, for which the melting point fell in the range of 279 to 280 °C. For `Cc1cc2c(cc1F)c(C#N)c(-c1ccc(S(=O)(=O)N[C@H](C)C(F)(F)F)cn1)n2C1CCCC1`, the melting point is 191 to 193 °C. For `CCCCCc1ccc(-c2ncc(C#N)c(Cl)n2)cc1`, the melting point was 96 to 96.3 °C. Compound `CCCCCS(=O)(=O)NC(=O)OCCCc1ccc(OCCOC)cc1Oc1ncc(C(F)(F)F)cc1Cl` registered a melting point of 97.5 to 99 °C. Next, `CCCCOc1ncc(C(=O)N[C@@H]2CCCC[C@H]2O)cc1-c1cc(C(F)(F)F)ccc1F`: 172 to 178 °C; `CCCCNS(=O)(=O)c1cccc(NC(=O)NS(=O)(=O)c2ccc(C)cc2)c1`: 153 °C. In turn, `CCCC(Sc1nc2ccccc2[nH]1)C(=O)Nc1c(SC)cc(C)nc1SC` (stereo not drawn) yielded a melting point of 235 to 237 °C. Next, `Cc1nc(NC(=O)c2ccccc2)sc1C(=O)NCC1CC1`: 163 to 166 °C; `CN(c1ccc(Cl)cc1)C1CCN(c2ccc(OC[C@@]3(C)Cn4cc([N+](=O)[O-])nc4O3)cc2)CC1`: 174 to 175 °C.

`Cc1cccc2c(-c3ccc(F)cc3)nccc12` gave a melting point of 91 to 92 °C. Compound `COc1ccc(CNc2ccc(C(=O)O)cc2)cc1` had a melting point of 208 to 210 °C. In turn, `CCCCCCCCCCCCCCOc1ccc(NC(=O)Nc2cccc(CCBr)c2)cc1` returned a melting point of 164 to 169 °C. In turn, `COCc1ncn2c1CN(C)C(=O)c1c(Cl)cccc1-2` registered a melting point of 143 to 144 °C.

Compound `COc1cc2sc(C(=N)NO)cc2cc1OC(F)F` returned a melting point of 176 to 177 °C. The same measure for `CC(=O)c1cc(Cl)ccc1Nc1ccc(O)cc1`: 158 to 161 °C; for `CN1CCN(c2ccc(-c3cnc4c(c3)N(Cc3c(F)ccc(F)c3Cl)CCN4)cn2)CC1`: 219 °C.

`O=CCCc1cc(F)c2ncc(C(=O)NCc3ccc(Cl)cc3)c(O)c2c1` had a melting point of 242 to 244 °C. Regarding `CCOC(=O)c1cn(-c2ccc(F)cc2F)c2nc(N3CCC(N)C3)c(F)cc2c1=O` (stereo not drawn), the melting point was in the range of 200 to 202 °C.

In the case of `Cc1c(C)c2c(c(C)c1NCc1ccccc1)C(=O)C(C)(C)O2`, the melting point fell in the range of 98 to 99 °C. In turn, `O=CN(O)C(CCCO)CS(=O)(=O)c1ccc(-c2ccc(F)cc2)cc1` (stereo not drawn) registered a melting point of 143 to 144 °C. For the compound `CCN1CCCC1CNC(=O)c1cc(OCC(F)(F)F)ccc1OCC(F)(F)F` (stereo not drawn), the melting point lay within 78 to 80 °C. Consider `CC(C)(C)C(O)(COc1ccc(F)cc1)C(Cc1ccc(Cl)cc1)n1cncn1` (stereo not drawn), for which the melting point was 104 to 105 °C.

`O=C(O)COc1cccc(Cn2cc(C3c4ccccc4C=Cc4ccccc43)c(=S)[nH]c2=O)c1` returned a melting point of 148 to 155 °C. Compound `O=C(CCCCCC1(C(=O)O)CC1)CCCCCC1(C(=O)O)CC1` returned a melting point of 122 to 123 °C. `CNc1nc(N)nc2c1nnn2Cc1ccccc1F` yielded a melting point of 252 to 254 °C. The same measure for `CCCCCCCCCCCCCCCCCCOC(=O)c1ccc(C)c(N)c1`: 79 °C; for `Cn1cc(-c2cccc(C(F)(F)F)c2)c(=O)c(-c2cccc(S(C)(=O)=O)c2)c1`: 180 to 183 °C. `O=[S@@]1CCCC[C@@H]1c1cccnc1` returned a melting point of 124 to 126 °C.

On to `CC(C)(C)OC(=O)NC1CCc2cc3ccccc3n2C1` (stereo not drawn), for which the melting point lay within 137 to 139 °C. Next, `Cc1oc(-c2ccccc2)nc1COc1ccc(CON=C(CCCCCCC(=O)O)c2ccc(F)cc2)cc1`: 56 to 57 °C. Turning to `C#CCN1C(=O)COc2ccc(C3CC(=O)C(C(CC)=NOCC)=C(O)C3)cc21` (stereo not drawn), the melting point is 100 to 102 °C. Regarding `Cc1cccc(NC(=O)NC2N=C(CC(C)C)c3cccc(C)c3N(CC(=O)C3CCCCC3)C2=O)c1` (stereo not drawn), the melting point was 152 to 155 °C.

Consider `COc1cc(-c2nc3ccccc3n2Cc2ccccc2F)cc(OC)c1OC`, for which the melting point came out at 154 °C. In the case of `CC(=O)N(c1cc(F)c(C#N)cc1F)c1nnnn1-c1ccc(OC(F)(F)F)cc1`, the melting point lay within 108 to 110 °C. Consider `Fc1cc(F)c2nc(CCC#Cc3ccccn3)cn2c1`, for which the melting point was 130 to 131 °C.

In the case of `OC(CN1CCC(O)(Cc2ccccc2)CC1)c1ccc(F)cc1` (stereo not drawn), the melting point was 144 to 146 °C. For `NC(=O)C(c1ccc(C(=O)O)cc1)C(Cc1ccccc1)c1ccccc1N1CCCCC1` (stereo not drawn), the melting point was in the range of 214 to 215 °C.

In turn, `COC(=O)c1ccc(C(=O)NC(C(=O)N2CCCC2C(=O)NC(C(C)C)C(O)C(F)(F)F)C(C)C)cc1` (mixture of isomers) showed a melting point of 64 to 67 °C. `COc1cc(Br)c2nc(-c3ccc(OC)c(F)c3)cc(O)c2c1` gave a melting point of 200 to 201 °C. Turning to `CN(C)c1ccc(NC(=O)c2cc3cc([Si](C)(C)C)ccc3n2Cc2cccc(F)c2)cn1`, the melting point lay in the range of 204 to 205 °C. Next, `COC(=O)c1csc(-c2cc3ccccc3n2C)n1`: 124 to 127 °C; `CCn1c(=O)c(=O)[nH]c2cccc(C)c21`: greater than 300 °C.
